Measurements published in US6878388B1, “Vanadium compounds for treating proliferative cell disorders” (Parker Hughes Institute, priority 2000, dated 2005).

Columns and labels:
[1] = system: U118 human glioblastoma cells; assay: MTT cytotoxicity assay, U118; format: cell-based; settings: 48 h incubation, 3 independent experiments, read-out: IC50 (mean ± SE)
Description: (§1) Human brain tumor cells lines U87 MG (Cat.# HTB-14), U118 MG (Cat. # HTB-15), U138 (Cat # HTB-16), U373 MG (CAT. # HTB-17), and T98G (Cat. # CRL-1690) and breast cancer cell lines BT-20 (Cat # HTB-19), MDA-MB-231 (Cat # HTB-26), MDA-MB-361 (Cat # HTB-27), and MCF-7 (Cat # HTB-22) were obtained from American Type Culture Collection (ATCC, Rockville, Md.) and maintained as continuous cell lines in Dulbecco's modified Eagles's medium (U87, U118, U138, U373, T98 and BT-20) or Leibovitz's L-15 medium (MDA-MB-231 and MDA-MB-361). All media were supplemented with 10% fetal calf serum (FCS), 4 mM glutamine, 100 U/ml penicillin G and […] streptomycin sulfate. All tissue culture reagents were obtained from Life Technologies Inc. (GIBCO-BRL, Gaithersburg, Md.).
(§2) The cytotoxicity of [VO(SO4)(Me2-Phen)2] against human cancer cell lines was analyzed using the MTT (3-[4,5-dimethylthiazol-2-yl]-2,5-diphenyl tetrazolium bromide) assay (Boehringer Mannheim Corp., Indianapolis, Ind.) as described previously (Narla et al., Clin Cancer Res., 4: 1405-1414, 1998). […] The absorbance at 540 nm (a reference wavelength of 690 nm was used) of the solution in each well was measured using a microplate reader (Labsystems). The percent survival and the IC50 values were calculated using Graphpad Prism v2.0 (Graphpad Software, Inc., San Diego, Calif.) as described previously (Narla et al., Supra). […]

[2] = system: U373 human glioblastoma cells; assay: MTT cytotoxicity assay, U373; format: cell-based; settings: 48 h incubation, 3 independent experiments, read-out: IC50 (mean ± SE)
Description: as §1, §2

[3] = system: MDA-MB-231 breast cancer xenografts; assay: SCID mouse xenograft model of human breast cancer; format: in vivo, SCID mice
Description: FIGS. 1A-1B illustrate the in vivo antitumor activity of the vanadium compound, [VO(SO4)(Me2-Phen)2] against human glioblastoma and breast cancer in SCID mice. The effects of daily treatment with [VO(SO4)(Me2-Phen)2] (10 mg/kg/day) or 5% DMSO in PBS (given five days per week for four weeks beginning the day after inoculation) on tumor growth and progression of glioblastoma (FIG. 1A) and breast cancer (FIG. 1B) are illustrated. Comparisons between groups were done using the log-rank test.
The animal protocols used in this study were approved by the Parker Hughes Institute Institutional Animal Care and Use Committee (IACUC). […]
The right and left hind legs of the SCID mice were inoculated subcutaneously with 1×10^6 U87 human glioblastoma and 1×10^6 MDA-MB-231 beast cancer cells, respectively, in 0.1 mL PBS. […] Mice were monitored daily for health status as well as tumor growth and were sacrificed if they became moribund, developed tumors which impeded their ability to attain food or water, or at the ed of the six-week observation period. Tumors were measured using Vernier calipers three times per week. Tumor volumes were calculated according to the following formula, as described previously (Narla et al., Clin Cancer Res., 4: 1405-14, 1998; Friedman et al., Cancer Res., 55: 2853-2857, 1995): Tumor volume=(Width)^2(Length)/2. […]

Cc1ccnc2c1ccc1c(C)ccnc12.Cc1ccnc2c1ccc1c(C)ccnc12.O=S(=O)([O-])[O-].[O]=[V+2] [[VO(SO4)(Me2-Phen)2], bis(4,7-dimethyl-1,10-phenanthroline) sulfatooxovanadium (IV)]
IC50 [1]: 0.82 ± 0.1 µM
IC50 [2]: 2 ± 0.4 µM
average size of tumors ([3]; MDA-MB-231, 1.5 months after inoculation, 10 mg/kg i.p., vehicle control 641±98.7, P=0.004): 286.9±41.5 mm^3
mice remaining alive and free of detectable tumors for >19 days ([3]; follows the MDA-MB-231 sentence, 10 mg/kg/dose i.p., five days per week for four weeks): 50%
